Reference: patent US20250320140A1, “USE OF MEDIUM CHAIN PERACIDS FOR BIOFILM INHIBITION IN INDUSTRIAL RECIRCULATING WATER SYSTEMS” (ECOLAB USA INC., priority 2017, published 2025)

Test: Solubility of sulfonated peracids at pH 4
Type: physicochemical
Conditions: pH of 4

With `O=C(CCCCCCCCCCS(=O)(=O)O)OO` [11-sulfoundecane peroxoic acid] as the molecule, how does the solubility read?
Its solubility is “about 1.3%”.
